In article PMC12257394, “Design, Synthesis, and Biological Evaluation of Ferrocenyl–Cyclo-(Gly‑L‑Pro) Hybrids Sensitizing Multidrug-Resistant Cancer Cells to Anticancer Agents” (ACS Medicinal Chemistry Letters, 2025):

Tests used:
[1] = system: SW620 cells; assay: MDR reversal assay (coadministration with anticancer drug), SW620; type: cell-based, human; settings: SW620, drug alone, n = 3
Excerpt: (§1) We investigated the potency of 4a–e to inhibit ABC transporters (ABCB1, ABCC1, and ABCG2) by determining their enhancement of reversal potency (ERP) values. ERP represents fold changes in the IC50 values of anticancer drugs in multidrug-resistant cancer sublines (ABCB1-overexpressing SW620D, SW620E, and SW620V; ABCC1-overexpressing SW620M; ABCG2-overexpressing SW620C and SW620Mito) exposed to a combination of the investigated compounds and anticancer agents at equimolar concentrations, compared with values obtained with drugs alone (Tables S2 and S3 and Figure ).
(§2) Standards. Multidrug-resistant variants of SW620 cells were developed in our laboratory as described previously.10, 11 All cells were cultured under standard conditions (37°C, 5% CO2, 100% humidity) in high-glucose DMEM supplemented with GlutaMaxTM, HEPES (ThermoFisher Scientific, USA), and 10% fetal bovine serum (EURx, Poland). Cells were routinely tested for potential Mycoplasma contamination using the MycoProbe Mycoplasma Detection kit (R&D System, USA).
(§3) In total, 104 cells in 100 µL of complete medium were plated per well of a 96-well plate and left overnight to allow cells to adhere to the surface. Then, the cells were exposed to a desired concentration of tested compound(s). Stock solutions were prepared in DMSO and used immediately. The final DMSO concentration was constant and nontoxic (0.1% v/v). After 70-h incubation, neutral red was added to the final concentration of 1 mM. After another 2 h, the medium was aspirated, and cells were washed twice with PBS. Dye was released using 100 µL of a solubilizer (1% acetic acid in 50% ethanol) on an orbital shaker (10 min). Absorbance was read at 540 nm using EnVision Multilabel Plate Reader (Perkin Elmer, USA). Results were expressed as % of control. The IC50 parameters were calculated using GraphPad Prism version 10 (GraphPad Software, Boston, Massachusetts USA).
(§4) The enhancement of reversal potency (ERP) value determination
(§5) For MDR reversal assays, cytotoxic agents were co-administered with compounds 4a–4e at equimolar concentrations in a range of 10 nM to 100 µM. IC₅₀ values were determined in ABCB1-overexpressing SW620 cell line variants. The enhancement of reversal potency (ERP) was calculated using the following formula: ERP = IC₅₀(drug)MDR / IC₅₀(drug + compound)MDR. All experiments were performed in triplicate (n = 3).

[2] = system: SW620 cells; assay: Neutral red uptake viability assay, SW620; type: cell-based, human; settings: SW620, substance alone (xlsx), read-out: SW620 IC50
Procedure: (§6) To evaluate this aspect, we investigated the viability of SW620 colon cancer cells and their multidrug-resistant variants (overexpressing ABCB1, ABCC1, and ABCG2) exposed to 1 and 10 μM 4a–e using a neutral red uptake assay (Table ). In general, compounds 4a–e exerted little or no cytotoxic effect on either SW620 or multidrug-resistant sublines even at 10 μM, with the remarkable exception of SW620C (cisplatin-selected variant of SW620) cells, which turned out to be relatively susceptible toward ferrocenyl 4a–c. […] This trend may reflect steric or electronic contributions to cellular uptake or interaction with intracellular targets. […] However, since E/Z isomeric data are currently available only for compound 4c, this hypothesis requires validation. To quantify this effect, IC50 values were determined (Table ). […]
(§7) The normal lung fibroblast MRC-5 and colorectal adenocarcinoma SW620 cell lines used in this experiment were purchased from American Type Culture Collection (USA) via LGC […]
as §2
as §3, with “Massachusetts USA). […]” for “Massachusetts USA).”
(§8) All experiments were performed in triplicate (n = 3).

[3] = system: SW620D cells (doxorubicin-resistant); assay: Neutral red uptake viability assay, SW620D; type: cell-based, human; settings: Homo sapiens, substance alone (xlsx), read-out: SW620D IC50
Procedure: as §6, with “In” for “To evaluate this aspect, we investigated the viability of SW620 colon cancer cells and their multidrug-resistant variants (overexpressing ABCB1, ABCC1, and ABCG2) exposed to 1 and 10 μM 4a–e using a neutral red uptake assay (Table ). In”
as §7, §2, §3, §4, §5

[4] = system: ABCG2-overexpressing SW620C cells; assay: MDR reversal assay (ERP), SW620C; type: cell-based, human; settings: SW620C, drug alone, n = 3
Excerpt: as §1, §2, §3, §4, §5

[5] = system: MRC-5 fibroblasts; assay: Neutral red uptake viability assay, MRC-5; type: cell-based, human; settings: MRC-5, 10 μM, 72 h exposure, n = 3, ± SD
Procedure: as §7, §2
as §3, with “Massachusetts USA). […]” for “Massachusetts USA).”
as §8

[6] = system: ABCB1-overexpressing SW620E cells; assay: MDR reversal assay (ERP), SW620E; type: cell-based, human; settings: Homo sapiens; SW620E, drug alone, n = 3
Excerpt: as §1, §2, §3, §4, §5

[7] = system: SW620E cells (etoposide-resistant); assay: Neutral red uptake viability assay, SW620E; type: cell-based, human; settings: Homo sapiens, substance alone (xlsx), read-out: SW620E IC50
Procedure: as §6, §7, §2
as §3, with “Massachusetts USA). […]” for “Massachusetts USA).”
as §8

[8] = system: ABCG2-overexpressing SW620Mito cells; assay: MDR reversal assay (ERP), SW620Mito; type: cell-based, human; settings: Homo sapiens; SW620Mito, drug alone, n = 3
Excerpt: as §1, §2, §3, §4, §5

[9] = system: SW620Mito cells (mitoxantrone-resistant); assay: Neutral red uptake viability assay, SW620Mito; type: cell-based, human; settings: Homo sapiens, substance alone (xlsx), read-out: SW620Mito IC50
Procedure: as §6, with “In” for “To evaluate this aspect, we investigated the viability of SW620 colon cancer cells and their multidrug-resistant variants (overexpressing ABCB1, ABCC1, and ABCG2) exposed to 1 and 10 μM 4a–e using a neutral red uptake assay (Table ). In”
as §7, §2
as §3, with “Massachusetts USA). […]” for “Massachusetts USA).”
as §8

[10] = system: ABCB1-overexpressing SW620V cells; assay: MDR reversal assay (ERP), SW620V; type: cell-based, human; settings: Homo sapiens; SW620V, drug alone, n = 3
Excerpt: as §1, §2, §3, §4, §5

[11] = system: SW620V cells (vincristine-resistant); assay: Neutral red uptake viability assay, SW620V; type: cell-based, human; settings: Homo sapiens, substance alone (xlsx), read-out: SW620V IC50
Procedure: as §6, with “In” for “To evaluate this aspect, we investigated the viability of SW620 colon cancer cells and their multidrug-resistant variants (overexpressing ABCB1, ABCC1, and ABCG2) exposed to 1 and 10 μM 4a–e using a neutral red uptake assay (Table ). In”
as §7, §2, §3, §4, §5

[12] = system: ABCC1-overexpressing SW620M cells; assay: MDR reversal assay (ERP), SW620M; type: cell-based, human; settings: Homo sapiens; SW620M, drug alone, n = 3
Excerpt: as §1, §2, §3, §4, §5

[13] = system: SW620M cells (methotrexate-resistant); assay: Neutral red uptake viability assay, SW620M; type: cell-based, human; settings: Homo sapiens, substance alone (xlsx), read-out: SW620M IC50
Procedure: as §6, with “In” for “To evaluate this aspect, we investigated the viability of SW620 colon cancer cells and their multidrug-resistant variants (overexpressing ABCB1, ABCC1, and ABCG2) exposed to 1 and 10 μM 4a–e using a neutral red uptake assay (Table ). In”
as §7, §2
as §3, with “Massachusetts USA). […]” for “Massachusetts USA).”
as §8

[14] = system: ABC-overexpressing cancer cells; design: method as in PMID 27326336; settings: earlier finding; citation mark lost in the text, probably ref 20; cited from earlier work

Compound: COc1cccc2c1C(=O)c1c(O)c3c(c(O)c1C2=O)C[C@@](O)(C(=O)CO)C[C@@H]3O[C@H]1C[C@H](N)[C@H](O)[C@H](C)O1 [Doxorubicin, reference compound]
- IC50 ([1]; Homo sapiens, SW-620): 342 nM
- IC50 ([2]; Homo sapiens, SW-620): 342 nM
- IC50 [3]: 4.26 µM

Compound: N.N.[Cl][Pt][Cl] [Cisplatin, reference compound]
- IC50 [1]: 4340 nM
- IC50 [2]: 4340 nM
- IC50 [4]: 27.9 µM

Compound: COc1ccc2c(C[C@@H]3NC(=O)[C@@H]4CCCN4C3=O)c(CC=C(C)C)[nH]c2c1 [TrpA, tryprostatin A, reference compound]
- survival rate [5]: 97 ± 11%

Compound: COc1cc([C@@H]2c3cc4c(cc3[C@@H](O[C@@H]3O[C@@H]5CO[C@@H](C)O[C@H]5[C@H](O)[C@H]3O)[C@H]3COC(=O)[C@H]23)OCO4)cc(OC)c1O [Etoposide, reference compound]
- IC50 ([1]; Homo sapiens, SW-620): 2600 nM
- IC50 ([2]; Homo sapiens, SW-620): 2600 nM
- IC50 [6]: 16 µM
- IC50 [7]: 16 µM

Compound: O=C1c2c(O)ccc(O)c2C(=O)c2c(NCCNCCO)ccc(NCCNCCO)c21 [Mitoxantrone, reference compound]
- IC50 ([1]; Homo sapiens, SW-620): 151 nM
- IC50 [8]: 6.36 µM
- IC50 ([2]; Homo sapiens, SW-620): 151 nM
- IC50 [9]: 6.36 µM

Compound: CC[C@]1(O)C[C@H]2CN(CCc3c([nH]c4ccccc34)[C@@](C(=O)OC)(c3cc4c(cc3OC)N(C=O)[C@H]3[C@@](O)(C(=O)OC)[C@H](OC(C)=O)[C@]5(CC)C=CCN6CC[C@]43[C@@H]65)C2)C1 [Vincristine, reference compound]
- IC50 ([1]; Homo sapiens, SW-620): 125 nM
- IC50 ([2]; Homo sapiens, SW-620): 125 nM
- IC50 [10]: 24.3 µM
- IC50 [11]: 24.3 µM

Compound: CN(Cc1cnc2nc(N)nc(N)c2n1)c1ccc(C(=O)N[C@@H](CCC(=O)O)C(=O)O)cc1 [Methotrexate, reference compound]
- IC50 ([1]; Homo sapiens, SW-620): 6280 nM
- IC50 ([2]; Homo sapiens, SW-620): 6280 nM
- IC50 [12]: 54.1 µM
- IC50 [13]: 54.1 µM

Compound: CC(C)(C)c1[nH]cnc1/C=c1\[nH]c(=O)/c(=C/c2ccccc2)[nH]c1=O [plinabulin]
- activity against ABC-overexpressing cancer cells [14]: inactive
